Some results are limits rather than exact numbers.

Holding throughout (assay type): cell-based
Experiment [1] deals with kidney cancer cell line ACHN. Put plainly: Various human cancer cell growth inhibition test: ACHN. The settings on record: ATPlite, read-out: GI50 value (concentration necessary for inhibiting 50% of cell growth). The text has this: (§1) A breast cancer cell line BT-549 (obtained from American Type Culture Collection (ATCC)), a uterus cancer cell line C-33A (obtained from ATCC), an ovary cancer cell line PA-1 (obtained from ATCC), a large-cell lung cancer cell line NCI-H460 (obtained from ATCC), a small-cell lung cancer cell line NCI-H82 (obtained from ATCC), a kidney cancer cell line ACHN (obtained from ATCC), a pancreatic cancer cell line BxPC-3 (obtained from ATCC), a malignant melanoma cell line A375 (obtained from ATCC), a throat cancer cell line FaDu (obtained from ATCC), a medulloblastoma cell line Daoy (obtained from ATCC), a cutaneous epithelioid sarcoma cell line VA-ES-BJ (obtained from ATCC), a rhabdomyosarcoma cell line A-204 (obtained from ATCC), a prostate cancer cell line DU145 (obtained from ATCC), a bladder cancer cell line T24 (obtained from ATCC), a lymphoma cell line SR (obtained from ATCC), a neuroblastoma cell line SH-SY5Y (obtained from DS Pharma Biomedical Co., Ltd.), a liver cancer cell line HepG2 (obtained from DS Pharma Biomedical Co., Ltd.), a stomach cancer cell line HGC-27 (obtained from DS Pharma Biomedical Co., Ltd.), and a multiple myeloma cell line NCI-H929 (obtained from DS Pharma Biomedical Co., Ltd.) were used as human cancer cell lines.
(§2) Each cell line was cultured in a cell culture medium recommended by ATCC or DS Pharma Biomedical Co., Ltd. and inoculated at 0.3 to 5.0×10^3 cells/well to a 96-well plate. The cells were cultured overnight in a carbon dioxide incubator of 37° C. containing 5% carbon dioxide. The medium was replaced with a fresh medium on the next day, then replaced with a mixed solution of a DMSO solution of a test compound with varying concentrations and a culture medium (final DMSO concentration: 0.1%), and left standing in a carbon dioxide incubator (day 0). IV-361, IV-379, IV-3, IV-215, IV-299, IV-669, IV-1049, and palbociclib (for comparison) were used as test compounds. For a control group, DMSO was added instead of the DMSO solution of the test compound to a cell culture medium (final DMSO concentration: 0.1%).
(§3) After culture for a predetermined period, the ATP activity of BT-549, C-33A, PA-1, NCI-H460, NCI-H82, ACHN, BxPC-3, A375, FaDu, Daoy, VA-ES-BJ, A-204, DU145, T24, and SR was measured by using ATPlite (manufactured by PerkinElmer, Inc.). The ATP activity of SH-SY5Y, HepG2, HGC-27, and NCI-H929 was measured by using CellTiter-Glo (manufactured by Promega Corp.).
(§4) The rate of inhibition of cell growth (%) was calculated according to the expression given below. Specifically, in the case where the difference between the ATP activity before culture (day 0) and the ATP activity after culture in the test compound-administered group is the same as the difference between the ATP activity before culture (day 0) and the ATP activity after culture in the control group, the rate of inhibition of cell growth is 0%. Rate of inhibition of cell growth=(1−((ATP activity of the test compound-administered group after culture)−(ATP activity of the test compound-administered group on day 0))/((ATP activity of the control group after culture)−(ATP activity of the control group on day 0)))×100
(§5) The concentration of the test compound necessary for inhibiting 50% of cell growth (GI50 value) was calculated by using EXSUS (version 8.1.0, manufactured by CAC Exicare Corp.).
Background: In ATP-based viability assays light output follows the ATP content of the culture.

Experiment [2] concerns rhabdomyosarcoma cell line A-204. Put plainly: Various human cancer cell growth inhibition test: A-204. To be noted: A204, ATPlite, read-out: GI50 value (concentration necessary for inhibiting 50% of cell growth).
Text: as §1, §2, §3, §4, §5

The test system of experiment [3] is malignant melanoma cell line A375. Description: Various human cancer cell growth inhibition test: A375. To be noted: A-375, ATPlite, read-out: GI50 value (concentration necessary for inhibiting 50% of cell growth).
Text: as §1, §2, §3, §4, §5

The subject of experiment [4] is breast cancer cell line BT-549. Put plainly: Various human cancer cell growth inhibition test: BT-549. The settings on record: ATPlite, read-out: GI50 value (concentration necessary for inhibiting 50% of cell growth).
Text: as §1, §2, §3, §4, §5

Experiment [5] relates to throat cancer cell line FaDu. Description: Various human cancer cell growth inhibition test: FaDu. The settings on record: ATPlite, read-out: GI50 value (concentration necessary for inhibiting 50% of cell growth).
Text: as §1, §2, §3, §4, §5

Experiment [6] relates to pancreatic cancer cell line BxPC-3. Put plainly: Various human cancer cell growth inhibition test: BxPC-3. To be noted: ATPlite, read-out: GI50 value (concentration necessary for inhibiting 50% of cell growth).
Text: as §1, §2, §3, §4, §5

Experiment [7] has as its system small-cell lung cancer cell line NCI-H82. Description: Various human cancer cell growth inhibition test: NCI-H82. To be noted: ATPlite, read-out: GI50 value (concentration necessary for inhibiting 50% of cell growth).
Text: as §1, §2, §3, §4, §5

In the next experiment the test system is lymphoma cell line SR. Put plainly: Various human cancer cell growth inhibition test: SR. The settings on record: ATPlite, read-out: GI50 value (concentration necessary for inhibiting 50% of cell growth).
Text: as §1, §2, §3, §4, §5

The subject of experiment [8] is medulloblastoma cell line Daoy. Description: Various human cancer cell growth inhibition test: Daoy. The settings on record: ATPlite, read-out: GI50 value (concentration necessary for inhibiting 50% of cell growth).
Text: as §1, §2, §3, §4, §5

Experiment [9] concerns bladder cancer cell line T24. Put plainly: Various human cancer cell growth inhibition test: T24. The settings on record: ATPlite, read-out: GI50 value (concentration necessary for inhibiting 50% of cell growth).
Text: as §1, §2, §3, §4, §5

In experiment [10] the test system is cutaneous epithelioid sarcoma cell line VA-ES-BJ. Put plainly: Various human cancer cell growth inhibition test: VA-ES-BJ. The settings on record: ATPlite, read-out: GI50 value (concentration necessary for inhibiting 50% of cell growth).
Text: as §1, §2, §3, §4, §5

Experiment [11] concerns large-cell lung cancer cell line NCI-H460. Put plainly: Various human cancer cell growth inhibition test: NCI-H460. To be noted: ATPlite, read-out: GI50 value (concentration necessary for inhibiting 50% of cell growth).
Text: as §1, §2, §3, §4, §5

Experiment [12] relates to stomach cancer cell line HGC-27. Put plainly: Various human cancer cell growth inhibition test: HGC-27. The settings on record: CellTiter-Glo, read-out: GI50 value (concentration necessary for inhibiting 50% of cell growth).
Text: as §1, §2, §3, §4, §5

Experiment [13] deals with Human keratinocytes (NHEK-Neo Pooled). Put plainly: Human keratinocyte growth inhibition assay. To be noted: 48 h, culture for 2 days, Cell Counting Kit-8. On the procedure: The measurement of a human keratinocyte growth inhibitory effect was carried out by modifying the method of Schafer et al. (British Journal of Pharmacology, 159, 842 (2011)).
Human keratinocytes (NHEK-Neo Pooled, manufactured by Lonza Group AG) were cultured in KGM-Gold keratinocyte growth medium Bullet Kit (manufactured by Lonza Group AG) and inoculated at 2×10^3 cells/well to a 96-well plate. After overnight culture in a carbon dioxide incubator, a test compound dissolved in DMSO (final DMSO concentration: 0.1%) was added thereto and left standing in a carbon dioxide incubator. After culture for 2 days, the absorbance thereof was measured by using Cell Counting Kit-8 (manufactured by Dojindo Laboratories).
The rate of inhibition of cell growth at each concentration was calculated from the test compound concentration and the absorbance of Cell Counting Kit-8, and the concentration of the test compound necessary for inhibiting 50% of cell growth (GI50 value) was calculated by using EXSUS (version 8.1.0, manufactured by CAC Exicare Corp.).
On the technique in general: Tetrazolium assays rely on reduction of a dye to a coloured formazan, in cell work by metabolically active cells.

`CC1(C)c2[nH]nc(NC(=O)C3([Si](C)(C)C)CCC3)c2CN1C(=O)Nc1ccccc1F` [IV-3, N-(2-Fluorophenyl)-6,6-dimethyl-3-[1-(trimethylsilyl)cyclobutanecarboxamido]-4,6-dihydropyrrolo[3,4-c]pyrazole-5(1H)-carboxamide]: the GI50 in experiment [1], in experiment [2], in experiment [3], in experiment [4], in experiment [5] and in experiment [6] was less than 300 nM in each case. Further, the GI50 (in [7]; in the experiment with lymphoma cell line SR; in [8]; in experiment [9]; in [10]; in experiment [11]) was less than 300 nM throughout. In addition, the GI50 in experiment [12] was less than 300 nM.
On to `Cc1cccc(F)c1NC(=O)N1Cc2c(NC(=O)C3([Si](C)(C)C)CCC3)n[nH]c2C1(C)C` [IV-129, N-(2-Fluoro-6-methylphenyl)-6,6-dimethyl-3-[1-(trimethylsilyl)cyclobutanecarboxamido]-4,6-dihydropyrrolo[3,4-c]pyrazole-5 (1H)-carboxamide], for which the GI50 in [13] was no more than 500 nM.
Regarding `Cc1cccc(Cl)c1NC(=O)N1Cc2c(NC(=O)C3([Si](C)(C)C)CCC3)n[nH]c2C1(C)C` [IV-215, N-(2-Chloro-6-methylphenyl)-6,6-dimethyl-3-[1-(trimethylsilyl)cyclobutanecarboxamido]-4,6-dihydropyrrolo[3,4-c]pyrazole-5 (1H)-carboxamide], the GI50 in [13] is no more than 500 nM; in experiment [1], less than 300 nM; in experiment [2], less than 300 nM; in experiment [3] it was less than 300 nM; in experiment [4] it was less than 300 nM; in experiment [5], less than 300 nM. Besides, the GI50 (in [6]; in experiment [7]; in the experiment with lymphoma cell line SR; in experiment [8]; in [9]; in [10]) was less than 300 nM in each case. For the same molecule, the GI50 in experiment [11] and in experiment [12] was less than 300 nM throughout.
For the molecule `COc1cccc(Cl)c1NC(=O)N1Cc2c(NC(=O)C3([Si](C)(C)C)CCC3)n[nH]c2C1(C)C` [IV-247, N-(2-Chloro-6-methoxyphenyl)-6,6-dimethyl-3-[1-(trimethylsilyl)cyclobutanecarboxamido]-4,6-dihydropyrrolo[3,4-c]pyrazole-5(1H)-carboxamide], the GI50 in experiment [13] is no more than 500 nM.
For `Cc1cccc(Br)c1NC(=O)N1Cc2c(NC(=O)C3([Si](C)(C)C)CCC3)n[nH]c2C1(C)C` [IV-299, N-(2-Bromo-6-methylphenyl)-6,6-dimethyl-3-[1-(trimethylsilyl)cyclobutanecarboxamido]-4,6-dihydropyrrolo[3,4-c]pyrazole-5 (1H)-carboxamide], the GI50 in experiment [1], in [2], in experiment [3], in experiment [4], in experiment [5] and in experiment [6] was less than 300 nM throughout. For the same molecule, the GI50 (in experiment [7]; with lymphoma cell line SR; in experiment [8]; in experiment [9]; in experiment [10]; in [11]) was less than 300 nM each time. Also, the GI50 in experiment [12] was less than 300 nM.
For the molecule `Cc1ccc(F)cc1NC(=O)N1Cc2c(NC(=O)C3([Si](C)(C)C)CCC3)n[nH]c2C1(C)C` [IV-361, N-(5-Fluoro-2-methylphenyl)-6,6-dimethyl-3-[1-(trimethylsilyl)cyclobutanecarboxamido]-4,6-dihydropyrrolo[3,4-c]pyrazole-5 (1H)-carboxamide], the GI50 in experiment [13] was no more than 500 nM; in experiment [1] it was less than 300 nM; in experiment [2], less than 300 nM; in experiment [3], less than 300 nM; in experiment [4] it was less than 300 nM; in experiment [5] it was less than 300 nM. Also, the GI50 (in experiment [6]; in experiment [7]; in the experiment with lymphoma cell line SR; in [8]; in [9]; in [10]) was less than 300 nM throughout. Further, the GI50 in experiment [11] and in experiment [12] was less than 300 nM in each case.
Take `Cc1ccc(C)c(NC(=O)N2Cc3c(NC(=O)C4([Si](C)(C)C)CCC4)n[nH]c3C2(C)C)c1F` [IV-669, N-(2-Fluoro-3,6-dimethylphenyl)-6,6-dimethyl-3-[1-(trimethylsilyl)cyclobutanecarboxamido]-4,6-dihydropyrrolo[3,4-c]pyrazole-5(1H)-carboxamide]: the GI50 in experiment [1], in experiment [2], in [3], in experiment [4], in experiment [5] and in [6] was less than 300 nM each time. Also, the GI50 (in experiment [7]; in the experiment with lymphoma cell line SR; in experiment [8]; in experiment [9]; in experiment [10]; in [11]) was less than 300 nM in each case. Also, in [12], the GI50 is less than 300 nM.
Consider `CC1(C)c2[nH]nc(NC(=O)C3([Si](C)(C)C)CCC3)c2CN1C(=O)Nc1c(F)ccc2ccoc12` [IV-1049, N-(6-Fluorobenzofuran-7-yl)-6,6-dimethyl-3-[1-(trimethylsilyl)cyclobutanecarboxamido]-4,6-dihydropyrrolo[3,4-c]pyrazole-5 (1H)-carboxamide], for which the GI50 in [1], in experiment [2], in experiment [3], in [4], in experiment [5] and in experiment [6] was less than 300 nM throughout. Besides, the GI50 (in [7]; in the experiment on lymphoma cell line SR; in [8]; in experiment [9]; in experiment [10]; in [11]) was less than 300 nM throughout. The GI50 in experiment [12] was less than 300 nM.

(Values after patent publication US10894798B2, “Substituted dihydropyrrolopyrazole derivative” (UBE INDUSTRIES, LTD., priority 2015, dated 2021).)
